Reference: US6900193B1, “Structural modification of 19-norprogesterone I: 17-α-substituted-11-β-substituted-4-aryl and 21-substituted 19-norpregnadienedione as new antiprogestational agents” (The United States of America as represented by the …, priority 1996, dated 2005)
“Also recorded” adds a separate entry of the source.

Legend:
[1] = system: progesterone-induced endometrial proliferation; assay: AntiClauberg test; type: in vivo, rabbit; set-up: key to ANTIPROGESTATIONAL Anti-Clauberg: relative oral potency vs. reference compound set to 100; settings: for ANTIPROGESTATIONAL Anti-Clauberg: relative potency; for ANTIPROGESTATIONAL Anti-Clauberg / BIOLOGICAL ACTIVITY antiClauberg: CDB-2914 = 100 (assigned); for antiClauberg / oral antiprogestational activity, in words: versus the standard 69B; for BIOLOGICAL ACTIVITY antiClauberg: Table 2; for ANTIPROGESTATIONAL ACTIVITY ANTI-CLAUBERG: estrogen-primed immature rabbits, CDB-2477 = 1.0 (assigned)
Procedure, shortened: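 Immature NZW rabbits were estradiol-primed s.c. for 6 days, then given progesterone 0.8 mg/day s.c. plus compound orally or s.c. for 5 days. Uteri were sectioned and H&E-scored for endometrial glandular proliferation (McPhail). Percent inhibition was calculated per dose versus progesterone-only animals.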

[2] = target: T1, glucocorticoid receptor (estrogen-primed rabbit thymus) (Oryctolagus cuniculus, UniProt P59667); assay: Relative binding affinity, glucocorticoid receptor; settings: for RELATIVE BINDING AFFINITY Glucocorticoid / BINDING AFFINITY Glucocortic: estrogen-primed rabbit thymus, dexamethasone = 100%; for binding affinity for the glucocorticoid receptor, in words: rabbit thymus, versus CDB-2914 (69B) where stated; for BINDING AFFINITY Glucocortic: Table 2
T1 construct: preparation of cytosols for the progesterone and glucocorticoid receptor assays; from tissue; host or cells: thymus of estradiol-primed immature female New Zealand White rabbits (cytosol)
T1 sequence (P59667 1-772): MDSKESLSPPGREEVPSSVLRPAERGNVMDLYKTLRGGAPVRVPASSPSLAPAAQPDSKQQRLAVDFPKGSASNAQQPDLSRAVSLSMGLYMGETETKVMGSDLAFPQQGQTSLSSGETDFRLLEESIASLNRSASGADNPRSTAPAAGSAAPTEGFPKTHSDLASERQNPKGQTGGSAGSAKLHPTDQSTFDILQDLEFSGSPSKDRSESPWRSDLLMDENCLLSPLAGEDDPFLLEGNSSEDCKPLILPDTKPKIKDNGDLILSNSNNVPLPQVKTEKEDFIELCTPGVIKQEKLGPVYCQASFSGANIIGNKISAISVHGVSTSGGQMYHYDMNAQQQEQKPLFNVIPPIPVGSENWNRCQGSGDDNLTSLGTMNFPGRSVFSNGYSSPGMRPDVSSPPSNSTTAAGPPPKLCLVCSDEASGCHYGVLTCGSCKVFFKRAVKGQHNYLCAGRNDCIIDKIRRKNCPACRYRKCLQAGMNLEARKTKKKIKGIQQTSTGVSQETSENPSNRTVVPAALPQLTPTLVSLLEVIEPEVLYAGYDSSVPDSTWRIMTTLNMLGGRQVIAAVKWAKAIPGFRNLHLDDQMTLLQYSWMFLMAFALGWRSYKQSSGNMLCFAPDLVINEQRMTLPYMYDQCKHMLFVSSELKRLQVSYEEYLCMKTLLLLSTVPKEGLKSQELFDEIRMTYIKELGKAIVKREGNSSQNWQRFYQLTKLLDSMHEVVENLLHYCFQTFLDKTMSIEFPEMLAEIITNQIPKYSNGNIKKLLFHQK

Row | SMILES | ANTIPROGESTATIONAL Anti-Clauberg ([1]; oral) | RELATIVE BINDING AFFINITY Glucocorticoid [2] | antiClauberg / oral antiprogestational activity, in words ([1]; oral) | binding affinity for the glucocorticoid receptor, in words [2] | BIOLOGICAL ACTIVITY antiClauberg ([1]; oral) | BINDING AFFINITY Glucocortic [2] | further results
1 | CN(C)c1ccc(C2CC3(C)C(CCC34OCC4=O)C3CCC4=CC(=O)CCC4=C23)cc1 (stereo not drawn) [Compound 12, 17-Spirooxetano-3′-oxo-11β-[4-(N,N-dimethylamino)phenyl]-19-norpregna-4,9-dien-3-one] | 29 | 32% |  |  |  |  | 
2 | CC(=O)O[C@]1(C(=O)CF)CCC2C3CCC4=CC(=O)CCC4=C3C(c3ccc(N(C)C)cc3)C[C@@]21C (stereo partly drawn) [Compound 13, 17α-acetoxy-21-fluoro-11β-[4-(N,N-dimethylamino)phenyl]-19-norpregna-4,9-diene-3,20-dione] | 80 | 109% |  |  |  |  | 
3 | CC(=O)O[C@]1(C(=O)CCl)CCC2C3CCC4=CC(=O)CCC4=C3C(c3ccc(N(C)C)cc3)C[C@@]21C (some centres unmarked) [Compound 14A] | 68 | 90% |  |  |  |  | 
4 | CC(=O)OCC(=O)[C@@]1(OC(C)=O)CCC2C3CCC4=CC(=O)CCC4=C3C(c3ccc(N(C)C)cc3)C[C@@]21C (stereo partly drawn) [Compound 15, 17α,21-diacetoxy-11β-[4-(N,N-dimethylamino)phenyl]-19-norpregna-4,9-diene-3,20-dione] | 279 | 51% | greater activity than the standard | substantial reduction in glucocorticoid binding affinity; also recorded: low binding affinity |  |  | antiprogestational potency compared to the lead compound (CDB-2914), oral antiClauberg test ([1]; oral, versus CDB-2914): 2.79 times
5 | CC(=O)O[C@]1(C(=O)CO)CCC2C3CCC4=CC(=O)CCC4=C3C(c3ccc(N(C)C)cc3)C[C@@]21C (stereo partly drawn) [Compound 41, 17α-acetoxy-21-hydroxy-11β-[4-(N,N-dimethylamino)phenyl]-19-norpregna-4,9-diene-3,20-dione] | 140 | 71% | greater activity than the standard |  |  |  | 
6 | CC(=O)O[C@]1(C(C)=O)CC[C@H]2[C@@H]3CCC4=CC(=O)CCC4=C3[C@@H](c3ccc(N(C)C)cc3)C[C@@]21C [Compound 69B, 17α-acetoxy-11β-(4-N,N-dimethylaminophenyl)-19-norpregna-4,9-diene-3,20-dione, reference compound] | 100 | 114% |  |  | 100 | 114% | potency of the standard relative to mifepristone in the antiClauberg test ([1]; oral administration): 3 times; ANTIPROGESTATIONAL ACTIVITY ANTI-CLAUBERG ([1]; oral): 3.27; potency of 69B relative to mifepristone in the antiClauberg test ([1]; oral, 95% C.I.=1.41-7.58, previous studies): 3.27 ×
7 | CC(=O)O[C@]1(C(C)=O)CC[C@H]2[C@@H]3CCC4=CC(=O)CCC4=C3[C@@H](c3ccc(N4CCCCC4)cc3)C[C@@]21C [Compound 71, 17α-Acetoxy-11β-[4(N-Piperidino)phenyl]-19-norpregna-4,9-diene-3,20-dione] |  |  | greater activity than the standard | low binding affinity | 253 | 20% | 
8 | CC(=O)OCC(=O)[C@@]1(OC(C)=O)CC[C@H]2[C@@H]3CCC4=CC(=O)CCC4=C3[C@@H](c3ccc(C(C)=O)cc3)C[C@@]21C [Compound 106b, 17α,21-Diacetoxy-11β-(4-acetylphenyl)19-norpregna-4,9-diene-3,20-dione] |  |  |  |  | 34 | 14% | 
9 | COCC(=O)[C@@]1(OC)CC[C@H]2[C@@H]3CCC4=CC(=O)CCC4=C3[C@@H](c3ccc(N(C)C)cc3)C[C@@]21C [Compound 113a, 17α,21-Dimethoxy-11β-[4-(N,N-dimethylamino)phenyl]-19-norpregna-4,9-diene-3,20-dione] |  |  | greater activity than the standard; also recorded: more than twice as active at the standard | reduced binding affinity | 229 | 62% | 
10 | COCC(=O)C1(OC(C)=O)CCC2C3CCC4=CC(=O)CCC4=C3C(c3ccc(N4CCCCC4)cc3)CC21C (stereo not drawn) [Compound 123a, 17α-Acetoxy-1113-[4-(N-piperidino)phenyl]-21-methoxy-19-norpregna-4,9-diene-3,20-dione] |  |  |  |  | 45-83 | 11% | 
11 | CC#C[C@]1(O)CC[C@H]2[C@@H]3CCC4=CC(=O)CCC4=C3[C@@H](c3ccc(N(C)C)cc3)C[C@@]21C [mifepristone] |  |  |  | greater binding affinity |  |  | ANTIPROGESTATIONAL ACTIVITY ANTI-CLAUBERG ([1]; oral): 1.0
